Source: BindingDB's records for patent US20230312583 (Shengke Pharmaceuticals (Jiangsu), 2023)

Biological target: Mast/stem cell growth factor receptor Kit (Homo sapiens, UniProt P10721)
Assay: Biological Assay
Experimental: Reactions were carried out in the presence of 10 μM ATP. […] The radioactive phosphorylated substrate remaining on the filter paper was measured.

Sequence of Mast/stem cell growth factor receptor Kit (P10721 whole entry): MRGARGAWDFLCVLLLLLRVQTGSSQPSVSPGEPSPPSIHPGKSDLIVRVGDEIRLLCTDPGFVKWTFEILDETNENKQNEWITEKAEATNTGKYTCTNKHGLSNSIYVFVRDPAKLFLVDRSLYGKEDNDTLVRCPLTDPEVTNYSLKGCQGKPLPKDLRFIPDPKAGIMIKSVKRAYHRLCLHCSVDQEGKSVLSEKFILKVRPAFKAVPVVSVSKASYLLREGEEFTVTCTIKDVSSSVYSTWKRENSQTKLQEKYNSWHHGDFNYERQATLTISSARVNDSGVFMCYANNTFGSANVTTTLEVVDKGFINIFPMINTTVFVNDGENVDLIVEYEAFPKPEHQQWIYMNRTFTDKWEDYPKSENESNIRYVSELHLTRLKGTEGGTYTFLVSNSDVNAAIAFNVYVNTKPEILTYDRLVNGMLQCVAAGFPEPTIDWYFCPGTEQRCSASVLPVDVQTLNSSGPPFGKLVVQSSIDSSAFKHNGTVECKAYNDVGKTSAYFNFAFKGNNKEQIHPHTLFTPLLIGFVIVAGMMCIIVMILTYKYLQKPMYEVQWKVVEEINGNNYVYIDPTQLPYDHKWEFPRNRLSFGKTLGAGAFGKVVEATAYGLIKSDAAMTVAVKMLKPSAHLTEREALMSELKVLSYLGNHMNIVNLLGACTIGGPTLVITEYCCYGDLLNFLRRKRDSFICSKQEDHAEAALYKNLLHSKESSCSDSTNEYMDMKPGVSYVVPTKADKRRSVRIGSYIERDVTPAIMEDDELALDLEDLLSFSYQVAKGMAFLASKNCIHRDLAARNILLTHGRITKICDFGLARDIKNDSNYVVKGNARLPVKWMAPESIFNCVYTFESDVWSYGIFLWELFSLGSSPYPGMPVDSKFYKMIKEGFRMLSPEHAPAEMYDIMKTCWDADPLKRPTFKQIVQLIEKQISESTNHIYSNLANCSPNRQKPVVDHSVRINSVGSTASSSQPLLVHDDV

- IC50: 93.2 nM
Structure (SMILES): CC#CCOc1cc(Nc2ncc3ccc4ncn(C(C)C)c4c3n2)ncc1N1CCNCC1 [US20230312583, Compound I-13]
